We go through one molecule from patent US10426755B2, “Methods for inhibiting cancer cells” (Chang Gung Memorial Hospital, Chiayi, priority 2015, dated 2019).

Common to all, as to type: cell-based
Test [1] concerns breast cancer cells (MCF-7, tamoxifen-resistant MCF7 and MDA MB-231). As to the kind of experiment: Annexin V/PI flow cytometry apoptosis/necrosis, breast cancer cells. Particulars: 10 or 20 μM DT, 24-48 hours, vs PBS and control; time dependent; FIG. 8. As for the experimental part: The effect of DT on metastatic prostate cancer cells (hormone therapy-resistant PC3, DU145 and LNCaP); lung cancer cells (A549 and chemotherapy-resistant/metastatic H460); and breast cancer cells (MCF-7, tamoxifen-resistant MCF7 and MDA MB-231) was assessed.
1×10^6 Cancer cells were seeded in a 100-mm plate and cultured overnight. The cancer cells were treated with phosphate buffered saline (PBS), a Dimethyl sulfoxide (DMSO) vehicle (CT), 10 or 20 μM of DT for 24-48 hours, then collected and washed with cold PBS. The supernatant was removed by centrifugation and resuspended in FITC Annexin V binding buffer and Propidium iodide (PI) (Annexin V-FITC Apoptosis Detection Kit, commercially available from Strong Biotech Corporation, Taiwan). The suspended cancer cells were stained at room temperature, in the dark for 15 min and analyzed by the BD FACSCanto™ flow cytometry (Becton Dickinson, USA). The amount of early apoptosis, late apoptosis, and necrosis was measured as the percentage of annexin-V positive/PI negative (Q4 in the FACS images), annexin-V positive/PI positive (Q2 in the FACS images), and annexin-V negative/PI positive cells (Q1 in the FACS images), respectively. Normal cells are in […] of the FACS images.

Another test has as its system macrophages. The test is described as follows: Macrophage mobility after DT treatment. The conditions noted are these: macrophages treated with 5 or 10 μM DT vs DMSO. The protocol: An in vitro study to evaluate the effect of DT on macrophage and cancer cell migration was performed.
Macrophages were treated with a vehicle (DMSO), 5 or 10 μM DT. The mobility of the macrophages was not affected by DT. The macrophages were placed in an invasive assay, prepared accordingly to the steps in Example 10 using DT-treated prostate cancer cells (DU145 or PC3) incubated in 10% CD-FBS RPMI medium.

Test [2] has as its system skp2, MMP2, MMP9 in DU145, PC3 and 22RV1 prostate cancer cells. As to the kind of experiment: skp2 and downstream gene mRNA expression, prostate cancer cells. The conditions noted are these: various concentrations of DT vs DMSO; PC3, DU145, 22RV1; FIG. 9 (h)-(l). As for the experimental part:
It has been reported that skp2 plays an important role in the metastasis of cancer cells. An in vitro evaluation of the effect of DT on prostate cancer cell metastasis was performed, by measuring the mRNA expression of skp2 in the following prostate cancer cell lines: meatstatic DU145 cells (Panels i-j of FIG. 9), hormone therapy resistant and metastatic PC3 cells (Panel h of FIG. 9), and 22RV1 cells (Panels k-l of FIG. 9), A549 lung cancer cells (Panels (c)-(e) of FIG. 10), chemotherapy-resistant/metastatic H460 lung cancer cells (Panels (d) and (f) of FIG. 10), HCT116 colon cancer cells (Panels (g) and (i) of FIG. 10) and MCF7-tamoxifen resistant breast cancer cells (Panels (h) and (j) of FIG. 10) […].
The cancer cells were treated with DMSO and various concentrations of DT.

For test [3], the system named is CCL2 in THP1/DU145 co-culture. The test is described as follows: CCL2 ELISA, THP1/DU145 co-culture. The conditions noted are these: DT-treated monocyte/DU145 co-culture medium; 5 or 10 μM DT, 24 hours; FIG. 15 (a). As for the experimental part: As illustrated in Example 10, the production of CCL2 was inhibited by DT in both prostate cancer cells and macrophage, the effect of DT on monocyte/cancer cell co-culture and macrophage/cancer cell co-culture was examined using the invasion assay described in Example 9. • (a) THP1 monocytes, Raw264.7 macrophage, monocyte/prostate cancer co-culture and macrophage/prostate cancer co-culture were treated with a vehicle (DMSO), 5 or 10 μM DT for 24 hours, the cultured medium was collected and placed into the lower chamber of a transwell plate. • (b) Prostate cancer cells (PC3, DU145 and 22RV1) were placed in the cell invasion assay). The level of CCL2 in the invasion assay was measured by ELIZA method.

Test [4] deals with CCL2 in metastatic DU145 prostate cancer cells. The test is described as follows: CCL2 ELISA of culture medium, DU145. The conditions noted are these: 5 or 10 μM DT, 24 hours, vs DMSO, FIG. 14 (c). As for the experimental part: (§1) It has been reported that increased CCL2 expression enhances cancer cell metastasis via macrophage recruitment. The effect of DT on CCL2 expression in RAW264.7 macrophages, THP1 monocytes and prostate cancer cells (metastatic DU145 and hormone therapy resistant and metastatic PC3) was examined by treating the cells with DMSO (control), 5 or 10 μM DT for 24 hours.
(§2) The culture medium was collected and the concentration of CCL2 was measured using ELISA assay.

Another test deals with CCL2 in THP1 monocytes. As to the kind of experiment: CCL2 ELISA of culture medium, THP1 monocytes. Particulars: 5 or 10 μM DT, 24 hours, vs DMSO, FIG. 14 (b). As for the experimental part: as §1, §2
Test [5] deals with tamoxifen-resistant MCF-7 breast cancer cells. As to the kind of experiment: XTT proliferation assay, tamoxifen-resistant MCF-7. Particulars: 1-3 days, Panel (c) of FIG. 3. The protocol:
The prostate cancer cells were plated at a density of 10^3 or 3×10^3 per well, in a 96-well plate, in a medium containing 10% Fetal bovine serum (FBS) (Gibco®, commercially available from Life Technologies, USA). Once the prostate cancer cells were attached to the culture dish, the 10% FBS medium was replaced with a second 10% FBS medium and each of the prostate cancer cell line was treated with 1, 5, and 10 μM of DT respectively for 1-2 days. The absorbance was measured using XTT assay kit (commercially available from Roche, Switzerland) at 492 nm using an ELISA reader (Bio-Rad Laboratories, USA).
An in vitro evaluation of the effect of DT on the breast cancer cells was performed. The breast cancer cell lines, MDA-MB-231, MCF-7 and tamoxifen-resistant MCF-7 breast cancer cells were obtained from Bioresource Collection and Research Center, Taiwan. The breast cancer cells were cultured in Eagle's Minimum Essential Medium containing 10% charcoal-stripped fetal bovine serum and plated according to the steps in Example 1 and each of the breast cancer cell line was treated with 0 (control), 5, 10 and 20 μM of DT, respectively for 1-3 days. The absorbance was measured using XTT assay kit at 492 nm using an ELISA reader.

The subject of test [6] is colorectal cancer cells (chemotherapy resistant HCT116). As to the kind of experiment: Cell invasion assay (transwell, Matrigel), colorectal cancer cells. The conditions noted are these: 5 or 10 μM DT, 3 days, vs control vehicle; FIG. 13 (a). The protocol: An in vitro evaluation of the effect of DT on lung cancer cells (A549 and chemotherapy resistant/metastatic H460), prostate cancer cells (metastatic DU145) and colorectal cancer cells (chemotherapy resistant HCT116) invasion and migration was performed, using cell invasion assay and cell migration assay.
Cell Invasion Assay: cells of interest were treated with a control vehicle, 5 or 10 μM of DT and incubated for 3 days. 1×10^5 cells were placed into the upper chamber of transwell plates (8 μm) with membranes pre-coated with 20% Matrigel and the bottom chamber contained 600 μL media supplemented with 10% fetal bovine serum (FBS). The cells migrated to the bottom of the chamber were fixed, stained and counted.

“Also recorded” adds a separate entry of the source. Bounds are passed on as bounds.

Take `Cc1cccc2c3c(ccc12)C(=O)C1=C(OCC1C)C3=O` (centres unmarked) [DT, dihydroisotanshinone I]: the “early apoptosis, late apoptosis and necrosis, breast cancer cells” value in test [1] was “more early apoptosis, late apoptosis and necrosis”. In addition, in the test with macrophages, the “mobility of the macrophages” value is given as “not affected”. Besides, the “mRNA expression of skp2 and its downstream genes, prostate cancer” value in test [2] was “effectively inhibit mRNA expression of skp2 and its downstream genes; also recorded: reduced skps and its downstream genes, MMP2 and MMP9”. In addition, in test [3], the “concentration of CCL2” value is “significantly reduced”. In test [4], the “production of CCL2 in metastatic DU145 prostate cancer cells” value is “effectively inhibit the production of CCL2”. In addition, in the test on CCL2 in THP1 monocytes, the “production of CCL2 in THP1 monocytes” value is reported as “effectively inhibit the production of CCL2”. Further, the “dose of DT required for inhibiting tamoxifen-resistant MCF-7 cells” value in test [5] is more than 1 µM. Moreover, the “colorectal cancer cell motility (invasion assay)” value in test [6] is given as “reduced the motility of chemotherapy resistant colorectal cancer cells; also recorded: reduced the motility of colon cancer cells”.
